Measured values from the NIST ThermoML archive (doi:10.1016/j.jct.2008.02.020).

Settings: Liquid, Buoyancy - hydrostatic balance with magnetic suspension - one sinker

Brc1ccccc1 [bromobenzene]
Settings	mass density [kg/m3]
353.15 K, 29956 kPa	1447.5
373.15 K, 98.54 kPa	1384.07
373.15 K, 1150.1 kPa	1385.64
373.15 K, 2174.4 kPa	1387.16
373.15 K, 3917.7 kPa	1389.71
373.15 K, 6182.4 kPa	1392.96
373.15 K, 8042.7 kPa	1395.57
373.15 K, 10003 kPa	1398.28
373.15 K, 12008 kPa	1400.99
373.15 K, 14086 kPa	1403.76
373.15 K, 15913 kPa	1406.15
373.15 K, 18066 kPa	1408.91
373.15 K, 19882 kPa	1411.21
373.15 K, 22174 kPa	1414.05
373.15 K, 24053 kPa	1416.33
373.15 K, 25897 kPa	1418.54
373.15 K, 27711 kPa	1420.7
373.15 K, 29531 kPa	1422.85
393.15 K, 97.33 kPa	1355.66
393.15 K, 1226 kPa	1357.56
393.15 K, 2181.2 kPa	1359.15
393.15 K, 3965.3 kPa	1362.08
393.15 K, 6075.4 kPa	1365.47
393.15 K, 8146.9 kPa	1368.75
393.15 K, 9937.3 kPa	1371.46
393.15 K, 11970 kPa	1374.53
393.15 K, 14177 kPa	1377.78
393.15 K, 15956 kPa	1380.34
393.15 K, 18164 kPa	1383.47
393.15 K, 20147 kPa	1386.23
393.15 K, 22176 kPa	1389
393.15 K, 23982 kPa	1391.42
393.15 K, 26170 kPa	1394.3
393.15 K, 28005 kPa	1396.7
393.15 K, 29542 kPa	1398.68
413.15 K, 99.45 kPa	1326.55
413.15 K, 1202.8 kPa	1328.65
413.15 K, 2177.1 kPa	1330.51
413.15 K, 3915.5 kPa	1333.73
413.15 K, 6185.5 kPa	1337.83
413.15 K, 8176.1 kPa	1341.33
413.15 K, 10032 kPa	1344.48
413.15 K, 12104 kPa	1348.01
413.15 K, 13992 kPa	1351.03
413.15 K, 15890 kPa	1354.12
413.15 K, 18162 kPa	1357.68
413.15 K, 19933 kPa	1360.41
413.15 K, 22150 kPa	1363.74
413.15 K, 24133 kPa	1366.66
413.15 K, 26039 kPa	1369.41
413.15 K, 27898 kPa	1372.06
413.15 K, 29858 kPa	1374.81
433.15 K, 1243.8 kPa	1299.09
433.15 K, 1973.3 kPa	1300.66
433.15 K, 4075.9 kPa	1305.09
433.15 K, 6197.8 kPa	1309.43
433.15 K, 7981.5 kPa	1312.95
433.15 K, 10020 kPa	1316.91
433.15 K, 12073 kPa	1320.75
433.15 K, 14034 kPa	1324.34
433.15 K, 15960 kPa	1327.77
433.15 K, 17921 kPa	1331.19
433.15 K, 19992 kPa	1334.75
433.15 K, 21950 kPa	1337.95
433.15 K, 24018 kPa	1341.31
433.15 K, 26143 kPa	1344.68
433.15 K, 28052 kPa	1347.64
433.15 K, 29864 kPa	1350.43
453.15 K, 1135.4 kPa	1268.14
453.15 K, 1982.5 kPa	1270.24
453.15 K, 4017.7 kPa	1275.16
453.15 K, 6189 kPa	1280.22
453.15 K, 7994.2 kPa	1284.28
453.15 K, 10139 kPa	1288.98
453.15 K, 12157 kPa	1293.2
453.15 K, 13982 kPa	1296.94
453.15 K, 16134 kPa	1301.21
453.15 K, 18122 kPa	1305.05
453.15 K, 19974 kPa	1308.56
453.15 K, 22141 kPa	1312.52
453.15 K, 24115 kPa	1316.05
453.15 K, 26121 kPa	1319.56
453.15 K, 28034 kPa	1322.83
453.15 K, 29912 kPa	1325.98
473.15 K, 1191.2 kPa	1236.28
473.15 K, 2175.4 kPa	1239.12
473.15 K, 4131.5 kPa	1244.58
473.15 K, 5988.1 kPa	1249.54
473.15 K, 8161.4 kPa	1255.13
473.15 K, 10165 kPa	1260.08
473.15 K, 12166 kPa	1264.85
473.15 K, 14163 kPa	1269.43
473.15 K, 16125 kPa	1273.8
473.15 K, 18167 kPa	1278.2
473.15 K, 20146 kPa	1282.35
473.15 K, 22123 kPa	1286.36
473.15 K, 24157 kPa	1290.39
473.15 K, 26075 kPa	1294.08
473.15 K, 28020 kPa	1297.73
473.15 K, 29860 kPa	1301.12
